# From US7718700B2, “Growth factor-binding compounds and methods of use” (Yale University, priority 2004, dated 2010)
# Like-named read-outs stand apart in the source and are kept apart here.
# Key:
# PDGFR = experiment: PDGF-stimulated PDGFR tyrosine phosphorylation in NIH 3T3 cells; format: cell-based, mouse; conditions: NIH 3T3 cells; read-out: IC50 PDGFR tyrosine phosphorylation (PDGF)
# Procedure: (§1) Inhibition of growth factor-dependent receptor tyrosine phosphorylation by GFBs. Starved Flk-1/KDR-overexpressing NIH 3T3 cells (Flk-1/NIH 3T3) or NIH 3T3 cells were pretreated with GFBs for 5 min before stimulation with VEGF (50 ng/ml) or PDGF-BB (10 ng/ml) for 10 min, respectively. The cells were then harvested and lysed, and proteins from the lysates were separated by SDS-PAGE and transferred to nitrocellulose. Membranes then were either immunoblotted with anti-phospho-VEGFR2 antibody (Cell Signaling Technologies, Beverly, Mass.) for activated Flk-1 or anti-phospho-tyrosine antibody (4G10, Upstate Biotechnology, Lake Placid, N.Y.) for activated PDGFR. Phosphotyrosine Flk-1 and PDGFR were quantified using a Bio-Rad Model GS-700 Imaging Densitometer (Bio-Rad Laboratories, Inc, Hercules, Calif.) (Blaskovich, M. A. et al. Nat Biotechnol, 2000, 18:1065-70).
# VEGFR (Flk-1/KDR) = experiment: VEGF-stimulated Flk-1 tyrosine phosphorylation in Flk-1/NIH 3T3 cells; format: cell-based, human
# Procedure: as §1
# PDGF = PDGF (Homo sapiens, UniProt P01127); experiment: Tryptophan fluorescence titration of PDGF; format: binding; conditions: emission at 334 nm
# Sequence of PDGF (P01127 82-190 limits assumed): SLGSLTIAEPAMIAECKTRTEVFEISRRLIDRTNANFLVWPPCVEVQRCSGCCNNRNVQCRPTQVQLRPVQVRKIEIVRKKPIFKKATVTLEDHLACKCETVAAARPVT
# Procedure: FIGS. 2D and 2E illustrate that GFB-204 binds PDGF and VEGF as indicated by growth factor tryptophan when increased amounts of GFB204 were added to PDGF and VEGF, respectively. The fluorescence was monitored by excitation at 295 nm and 228 nm, respectively, and emission at 334 nm.
# Both VEGF and PDGF contain tryptophans that fluoresce at […] when excited at […].
# A-549 xenografts = experiment: CD31 IHC microvessel count in A-549 xenograft tumors; format: in vivo, nude mice; conditions: 5 mg/Kg, tumors processed two hours after last i.p. injection
# Procedure: FIGS. 7A-7B illustrates CD31 IHC staining as described under Materials and Methods for tumors processed two hours after the last i.p. injection for a control (FIG. 7A) and GFB204 (FIG. 7B). Quantification of microvessels density (400×) was determined as described under Materials and Methods. SE, standard error. FIGS. 7A and 7B Microvessel Count; FIG. 7A=11.3±1.9; FIG. 7B=2.6±0.9.
# IHC study. On the termination day of antitumor experiments, the tumors were extracted and fixed in 10% neutral buffered formalin for 6 hours. After fixation, the tissue samples were processed into paraffin blocks. Tissue sections (4 μm thick) were obtained from the parablocks and stained with hematoxylin and eosin (H&E) using standard histological techniques. Tissue sections were also subjected to immunostaining for CD31 (BD Biosciences, San Diego, Calif.) using the avidin biotin peroxidase complex technique (Blaskovich, M. A. et al. Nat Biotechnol, 2000, 18:1065-70). Mouse monoclonal antibody was used at 1:50 dilution, following microwave antigen retrieval (four cycles of 5 minutes each on high in 0.1M citrate buffer).
smiles,measurement,setting,value
CCCCOc1c2cc(C(=O)Nc3cc(C(=O)O)cc(C(=O)OCc4ccccc4)c3)cc1Cc1cc(C(=O)Nc3cc(C(=O)O)cc(C(=O)OCc4ccccc4)c3)cc(c1OCCCC)Cc1cc(C(=O)Nc3cc(C(=O)O)cc(C(=O)OCc4ccccc4)c3)cc(c1OCCCC)Cc1cc(C(=O)Nc3cc(C(=O)O)cc(C(=O)OCc4ccccc4)c3)cc(c1OCCCC)C2 [GFB204],IC50,PDGFR,0.19 µM
same,IC50,"VEGFR (Flk-1/KDR); VEGF 50 ng/ml stimulated Flk-1 tyrosine phosphorylation, read-out: IC50 (μM) VEGFR",0.48 ± 0.31 µM
same,IC50,VEGFR (Flk-1/KDR); read-out: IC50 VEGFR tyrosine phosphorylation (VEGF),0.48 µM
same,binding to PDGF by tryptophan fluorescence titration,PDGF,binds both PDGF and VEGF
same,"microvessels per field (400×), CD31 staining",A-549 xenografts,2.6±0.9
